Assay results as given in ChEMBL document CHEMBL1649393, “Synthesis and antimicrobial activity of thiosemicarbazides, s-triazoles and their Mannich bases bearing 3-chlorophenyl moiety” (2011).
Values after ≈ are worked out from the molar mass of the structure shown.

Legend:
Format in all cases: functional
Staphylococcus aureus [1] = experiment: Antimicrobial activity against Staphylococcus aureus ATCC 25923 after 18 hrs by broth microdilution method; conditions: ATCC 25923, 18 h
Staphylococcus aureus [2] = experiment: Antimicrobial activity against Staphylococcus aureus ATCC 6538 after 18 hrs by broth microdilution method; conditions: ATCC 6538, 18 h
[3] = system: Staphylococcus epidermidis; experiment: Antimicrobial activity against Staphylococcus epidermidis ATCC 12228 after 18 hrs by broth microdilution method; conditions: ATCC 12228, 18 h
Bacillus subtilis [4] = experiment: Antimicrobial activity against Bacillus subtilis ATCC […] after 18 hrs by broth microdilution method
Bacillus cereus [5] = experiment: Antimicrobial activity against Bacillus cereus ATCC 10876 after 18 hrs by broth microdilution method; conditions: ATCC 10876, 18 h
Micrococcus luteus [6] = experiment: Antimicrobial activity against Micrococcus luteus ATCC 10240 after 18 hrs by broth microdilution method; conditions: ATCC 10240, 18 h
Escherichia coli [7] = experiment: Antimicrobial activity against Escherichia coli ATCC 25922 after 18 hrs by broth microdilution method; conditions: ATCC 25922, 18 h
Klebsiella pneumoniae [8] = experiment: Antimicrobial activity against Klebsiella pneumoniae ATCC 13883 after 18 hrs by broth microdilution method; conditions: ATCC 13883, 18 h
Proteus mirabilis [9] = experiment: Antimicrobial activity against Proteus mirabilis ATCC 12453 after 18 hrs by broth microdilution method; conditions: ATCC 12453, 18 h
Staphylococcus aureus [10] = experiment: Antimicrobial activity against Staphylococcus aureus ATCC 25923 assessed as >99.9 % reduction in CFU after 18 hrs by broth microdilution method; conditions: ATCC 25923, 18 h
Staphylococcus aureus [11] = experiment: Antimicrobial activity against Staphylococcus aureus ATCC 6538 assessed as >99.9 % reduction in CFU after 18 hrs by broth microdilution method; conditions: ATCC 6538, 18 h
[12] = system: Staphylococcus epidermidis; experiment: Antimicrobial activity against Staphylococcus epidermidis ATCC 12228 assessed as >99.9 % reduction in CFU after 18 hrs by broth microdilution method; conditions: ATCC 12228, 18 h
Bacillus subtilis [13] = experiment: Antimicrobial activity against Bacillus subtilis ATCC […] assessed as >99.9 % reduction in CFU after 18 hrs by broth microdilution method
Bacillus cereus [14] = experiment: Antimicrobial activity against Bacillus cereus ATCC 10876 assessed as >99.9 % reduction in CFU after 18 hrs by broth microdilution method; conditions: ATCC 10876, 18 h
Micrococcus luteus [15] = experiment: Antimicrobial activity against Micrococcus luteus ATCC 10240 assessed as >99.9 % reduction in CFU after 18 hrs by broth microdilution method; conditions: ATCC 10240, 18 h
Escherichia coli [16] = experiment: Antimicrobial activity against Escherichia coli ATCC 25922 assessed as >99.9 % reduction in CFU after 18 hrs by broth microdilution method; conditions: ATCC 25922, 18 h
Klebsiella pneumoniae [17] = experiment: Antimicrobial activity against Klebsiella pneumoniae ATCC 13883 assessed as >99.9 % reduction in CFU after 18 hrs by broth microdilution method; conditions: ATCC 13883, 18 h, read-out: MBC
Proteus mirabilis [18] = experiment: Antimicrobial activity against Proteus mirabilis ATCC 12453 assessed as >99.9 % reduction in CFU after 18 hrs by broth microdilution method; conditions: ATCC 12453, 18 h

Structure (SMILES)	MIC (Staphylococcus aureus [1]) [µg/mL]	MIC (Staphylococcus aureus [2]) [µg/mL]	MIC [3] [µg/mL]	MIC (Bacillus subtilis [4]) [µg/mL]	MIC (Bacillus cereus [5]) [µg/mL]	MIC (Micrococcus luteus [6]) [µg/mL]	MIC (Escherichia coli [7]) [µg/mL]	MIC (Klebsiella pneumoniae [8]) [µg/mL]	MIC (Proteus mirabilis [9]; read-out: MIC) [µg/mL]	MIC (Proteus mirabilis [9]) [µg/mL]	MBC (Staphylococcus aureus [10]) [µg/mL]	MBC (Staphylococcus aureus [11]) [µg/mL]	MBC [12] [µg/mL]	MBC (Bacillus subtilis [13]) [µg/mL]	MBC (Bacillus cereus [14]) [µg/mL]	MBC (Micrococcus luteus [15]) [µg/mL]	MBC (Escherichia coli [16]) [µg/mL]	MBC (Klebsiella pneumoniae [17]) [µg/mL]	MBC (Proteus mirabilis [18]; read-out: MBC) [µg/mL]	MBC (Proteus mirabilis [18]) [µg/mL]
Fc1ccc(-n2c(-c3cccc(Cl)c3)nn(CN3CCCC3)c2=S)cc1	125 (≈ 321 µM)	125 (≈ 321 µM)	125 (≈ 321 µM)	125 (≈ 321 µM)	250 (≈ 643 µM)	125 (≈ 321 µM)	500 (≈ 1290 µM)	500 (≈ 1290 µM)	500 (≈ 1290 µM)		250 (≈ 643 µM)	250 (≈ 643 µM)	500 (≈ 1290 µM)	250 (≈ 643 µM)	> 1000	500 (≈ 1290 µM)	500 (≈ 1290 µM)	500 (≈ 1290 µM)	1000 (≈ 2570 µM)	
S=c1n(CN2CCCC2)nc(-c2cccc(Cl)c2)n1-c1ccccc1	125 (≈ 337 µM)	125 (≈ 337 µM)	125 (≈ 337 µM)	125 (≈ 337 µM)	125 (≈ 337 µM)	125 (≈ 337 µM)	500 (≈ 1350 µM)	250 (≈ 674 µM)	500 (≈ 1350 µM)		500 (≈ 1350 µM)	500 (≈ 1350 µM)	1000 (≈ 2700 µM)	500 (≈ 1350 µM)	> 1000	1000 (≈ 2700 µM)	500 (≈ 1350 µM)	500 (≈ 1350 µM)	> 1000	
Fc1ccc(F)c(-n2c(-c3cccc(Cl)c3)nn(CN3CCCC3)c2=S)c1	125 (≈ 307 µM)	125 (≈ 307 µM)	125 (≈ 307 µM)	125 (≈ 307 µM)	125 (≈ 307 µM)	125 (≈ 307 µM)	500 (≈ 1230 µM)	250 (≈ 614 µM)		500 (≈ 1230 µM)	500 (≈ 1230 µM)	500 (≈ 1230 µM)	1000 (≈ 2460 µM)	1000 (≈ 2460 µM)	> 1000	1000 (≈ 2460 µM)	> 1000	> 1000		> 1000
S=c1n(CN2CCCC2)nc(-c2cccc(Cl)c2)n1-c1ccc(I)cc1	125 (≈ 252 µM)	250 (≈ 503 µM)	250 (≈ 503 µM)	125 (≈ 252 µM)	125 (≈ 252 µM)	125 (≈ 252 µM)	> 1000	1000 (≈ 2010 µM)	> 1000		1000 (≈ 2010 µM)	1000 (≈ 2010 µM)	> 1000	1000 (≈ 2010 µM)	> 1000	> 1000	> 1000	> 1000	> 1000	

Continued by falling MIC (Staphylococcus aureus [1]), values first:

MIC (Staphylococcus aureus [1]) [µg/mL]	MIC (Staphylococcus aureus [2]) [µg/mL]	MIC [3] [µg/mL]	MIC (Bacillus subtilis [4]) [µg/mL]	MIC (Bacillus cereus [5]) [µg/mL]	MIC (Micrococcus luteus [6]) [µg/mL]	MIC (Escherichia coli [7]) [µg/mL]	MIC (Klebsiella pneumoniae [8]) [µg/mL]	MIC (Proteus mirabilis [9]; read-out: MIC) [µg/mL]	MIC (Proteus mirabilis [9]) [µg/mL]	Structure (SMILES)	MBC (Staphylococcus aureus [10]) [µg/mL]	MBC (Staphylococcus aureus [11]) [µg/mL]	MBC [12] [µg/mL]	MBC (Bacillus subtilis [13]) [µg/mL]	MBC (Bacillus cereus [14]) [µg/mL]	MBC (Micrococcus luteus [15]) [µg/mL]	MBC (Escherichia coli [16]) [µg/mL]	MBC (Klebsiella pneumoniae [17]) [µg/mL]	MBC (Proteus mirabilis [18]; read-out: MBC) [µg/mL]	MBC (Proteus mirabilis [18]) [µg/mL]
250 (≈ 556 µM)	250 (≈ 556 µM)	500 (≈ 1110 µM)	> 1000	> 1000	500 (≈ 1110 µM)	> 1000	> 1000	> 1000		S=c1n(CN2CCCC2)nc(-c2cccc(Cl)c2)n1-c1ccccc1Br	> 1000	> 1000	> 1000	> 1000	> 1000	> 1000	> 1000	> 1000	> 1000	
31.2 (≈ 69.5 µM)	62.5 (≈ 139 µM)	250 (≈ 556 µM)	62.5 (≈ 139 µM)	62.5 (≈ 139 µM)	62.5 (≈ 139 µM)	> 1000	> 1000	> 1000		S=c1n(CN2CCCC2)nc(-c2cccc(Cl)c2)n1-c1ccc(Br)cc1	> 1000	> 1000	> 1000	500 (≈ 1110 µM)	> 1000	> 1000	> 1000	> 1000	> 1000	
